Test results as given in patent publication US20260297542A1, “HERBICIDE RESISTANT PLANTS” (SYNGENTA CROP PROTECTION AG, priority 2023, published 2026).

These molecules were tested against T1, AtPPO1 S305L G404A L479N (SEQ ID NO.137) (Arabidopsis thaliana, UniProt P55826, G404A/L479N/S305L) (assay: fluorescent Protoporphyrinogen Oxidase assay, crude extract). Details: read-out: percentage inhibition.
T1 construct: made in house; host or cells: E. coli BL21 (DE3) hemG, crude extract
T1 sequence (P55826 35-537 S305L/G404A/L479N): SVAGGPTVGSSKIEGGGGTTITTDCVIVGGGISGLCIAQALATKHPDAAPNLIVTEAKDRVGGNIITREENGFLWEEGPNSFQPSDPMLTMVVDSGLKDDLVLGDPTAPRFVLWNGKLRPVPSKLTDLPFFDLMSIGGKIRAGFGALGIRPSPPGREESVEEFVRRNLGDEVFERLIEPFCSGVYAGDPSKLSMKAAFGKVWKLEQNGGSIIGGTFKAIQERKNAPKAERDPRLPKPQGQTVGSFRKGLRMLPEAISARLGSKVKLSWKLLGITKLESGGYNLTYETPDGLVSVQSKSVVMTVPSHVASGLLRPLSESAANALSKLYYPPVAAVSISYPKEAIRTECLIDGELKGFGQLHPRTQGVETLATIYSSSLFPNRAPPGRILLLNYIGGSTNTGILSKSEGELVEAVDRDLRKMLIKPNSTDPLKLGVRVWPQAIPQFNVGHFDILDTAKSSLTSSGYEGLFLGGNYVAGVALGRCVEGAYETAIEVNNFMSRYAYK
Assay type: biochemical

Row | SMILES | inhibition at 0.1 ppm | inhibition at 1 ppm | inhibition at 10 ppm | inhibition at 100 ppm
1 | CCOC(=O)[C@]1(C)CC(c2cc(-n3c(=O)n(C)c(=S)n(C)c3=O)c(F)cc2Cl)=NO1 [Herbicide D, ethyl (5S)-3-[2-chloro-5-(3,5-dimethyl-2,6-dioxo-4-thioxo-1,3,5-triazinan-1-yl)-4-fluoro-phenyl]-5-methyl-4H-isoxazole-5-carboxylate] | 12% | 58% | 98% | 100%
2 | CCOC(=O)C1(C)CC(c2cc(-n3c(=O)cc(C(F)(F)F)n(C)c3=O)c(F)cc2Cl)=NO1 (centres unmarked) [Herbicide C, 3-(2-chloro-4-fluoro-5-(3-methyl-2,6-dioxo-4-trifluoromethyl-3,6-dihydropyrimidin-1(2H)-yl)phenyl)-5-methyl-4,5-dihydroisoxazole-5-carboxylic acid ethyl ester] | 26% | 90% | 100% | 100%
3 | C#CCN1C(=O)C(F)(F)Oc2cc(F)c(-n3c(=O)n(C)c(=S)n(C)c3=O)cc21 [Herbicide B, trifludimoxazin] | 77% | 98% | 100% | 100%
4 | CC(C)N(C)S(=O)(=O)NC(=O)c1cc(-n2c(=O)cc(C(F)(F)F)n(C)c2=O)c(F)cc1Cl [Herbicide E, saflufenacil] | 22% | 66% | 100% | 96%
5 | CCOC(=O)COc1ncccc1Oc1cc(-n2c(=O)cc(C(F)(F)F)n(C)c2=O)c(F)cc1Cl [Herbicide A, epyrifenacil] | 24% | 93% | 100% | 100%
